Where two headings read alike, the source gives them in different places.
Tested on: test plant species
Assay: Post-emergent herbicidal activity test (greenhouse, foliar spray, visual growth reduction)
Format: in vivo
Conditions: post-emergence, 336 h, 140 g ai/ha
Method in brief: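 Greenhouse plants at first–second true leaf stage sprayed overhead at 187 L/ha with compound in acetone/water/isopropanol/DMSO/crop oil/X-77 carrier; controls received solvent blank. Injury rated visually after 14 d on a 0–100% scale versus untreated and control plants, converted to growth reduction.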

[1] = ALOMY: blackgrass (Alopecurus myosuroides), 14 days after application, read-out: Visual Growth Reduction (%) 14 Days After Application, ALOMY
[2] = AMARE: redroot pigweed (Amaranthus retroflexus), 14 days after application, read-out: Visual Growth Reduction (%) 14 Days After Application, AMARE
[3] = AVEFA: wild oat (Avena fatua), 14 days after application, read-out: Visual Growth Reduction (%) 14 Days After Application, AVEFA
[4] = CHEAL: lambsquarters (Chenopodium album), 14 days after application, read-out: Visual Growth Reduction (%) 14 Days After Application, CHEAL
[5] = CIRAR: canada thistle (Cirsium arvense), 14 days after application, read-out: Visual Growth Reduction (%) 14 Days After Application, CIRAR
[6] = CYPES: yellow nutsedge (Cyperus esculentus), 14 days after application, read-out: Visual Growth Reduction (%) 14 Days After Application, CYPES
[7] = DIGSA: crabgrass (Digitaria sanguinalis), 14 days after application, read-out: Visual Growth Reduction (%) 14 Days After Application, DIGSA
[8] = ECHCG: barnyardgrass (Echinochloa crus-galli), 14 days after application, read-out: Visual Growth Reduction (%) 14 Days After Application, ECHCG
[9] = IPOHE: ivy-leaf morning glory (Ipomoea hederacea), 14 days after application, read-out: Visual Growth Reduction (%) 14 Days After Application, IPOHE
[10] = KCHSC: kochia (Bassia scoparia), 14 days after application, read-out: Visual Growth Reduction (%) 14 Days After Application, KCHSC
[11] = ORYSA: rice (Oryza sativa), 14 days after application, read-out: Visual Growth Reduction (%) 14 Days After Application, ORYSA
[12] = SETFA: giant foxtail (Setaria faberi), 14 days after application, read-out: Visual Growth Reduction (%) 14 Days After Application, SETFA
[13] = SORVU: grain sorghum (Sorghum vulgare), 14 days after application, read-out: Visual Growth Reduction (%) 14 Days After Application, SORVU
[14] = STEME: common chickweed (Stellaria media), 14 days after application, read-out: Visual Growth Reduction (%) 14 Days After Application, STEME
[15] = TRZAS: wheat, spring (Triticum aestivum), 14 days after application, read-out: Visual Growth Reduction (%) 14 Days After Application, TRZAS
[16] = blackgrass (Alopecurus myosuroides), 14 Days After Application, read-out: Visual Growth Reduction (%) ALOMY
[17] = canada thistle (Cirsium arvense), 14 Days After Application, read-out: Visual Growth Reduction (%) CIRAR
[18] = crabgrass (Digitaria sanguinalis), 14 Days After Application, read-out: Visual Growth Reduction (%) DIGSA
[19] = lambsquarters (Chenopodium album), 14 Days After Application, read-out: Visual Growth Reduction (%) CHEAL
[20] = redroot pigweed (Amaranthus retroflexus), 14 Days After Application, read-out: Visual Growth Reduction (%) AMARE
[21] = wild oat (Avena fatua), 14 Days After Application, read-out: Visual Growth Reduction (%) AVEFA
[22] = yellow nutsedge (Cyperus esculentus), 14 Days After Application, read-out: Visual Growth Reduction (%) CYPES
[23] = barnyardgrass (Echinochloa crus-galli), 14 Days After Application, read-out: Visual Growth Reduction (%) ECHCG
[24] = common chickweed (Stellaria media), 14 Days After Application, read-out: Visual Growth Reduction (%) STEME
[25] = giant foxtail (Setaria faberi), 14 Days After Application, read-out: Visual Growth Reduction (%) SETFA
[26] = ivy-leaf morning glory (Ipomoea hederacea), 14 Days After Application, read-out: Visual Growth Reduction (%) IPOHE
[27] = johnsongrass (Sorghum vulgare), 14 Days After Application, read-out: Visual Growth Reduction (%) SORVU
[28] = kochia (Bassia scoparia), 14 Days After Application, read-out: Visual Growth Reduction (%) KCHSC
[29] = rice (Oryza sativa), 14 Days After Application, read-out: Visual Growth Reduction (%) ORYSA
[30] = wheat, spring (Triticum aestivum), 14 Days After Application, read-out: Visual Growth Reduction (%) TRZAS

| Structure (SMILES) | pest or weed control at 140 g/ha [1] [%] | pest or weed control at 140 g/ha [2] [%] | pest or weed control at 140 g/ha [3] [%] | pest or weed control at 140 g/ha [4] [%] | pest or weed control at 140 g/ha [5] [%] | pest or weed control at 140 g/ha [8] [%] | pest or weed control at 140 g/ha [9] [%] | pest or weed control at 140 g/ha [10] [%] | pest or weed control at 140 g/ha [11] [%] | pest or weed control at 140 g/ha [12] [%] | pest or weed control at 140 g/ha [13] [%] | pest or weed control at 140 g/ha [14] [%] | pest or weed control at 140 g/ha [15] [%] | pest or weed control at 140 g/ha [16] [%] | pest or weed control at 140 g/ha [17] [%] | pest or weed control at 140 g/ha [18] [%] | pest or weed control at 140 g/ha [19] [%] | pest or weed control at 140 g/ha [20] [%] | pest or weed control at 140 g/ha [21] [%] | pest or weed control at 140 g/ha [22] [%] | other results |
| --- | --- | --- | --- | --- | --- | --- | --- | --- | --- | --- | --- | --- | --- | --- | --- | --- | --- | --- | --- | --- | --- |
| CCN(CC)c1c(Cl)ccc(-c2ccc(Cl)c(C(=O)OC)n2)c1F [F171] | 0 to 29 | 0 to 29 | 0 to 29 | 60 to 74 | 0 to 29 | 0 to 29 | 0 to 29 | 30 to 44 | 0 to 29 | 0 to 29 | 0 to 29 | 0 to 29 | 0 to 29 | – | – | – | – | – | – | – | pest or weed control at 140 g/ha [6]: 0 to 29%; pest or weed control at 140 g/ha [7]: 0 to 29% |
| COC(=O)c1nc(-c2ccc(C(F)F)cc2OC)c(F)cc1Cl [F275, Methyl 3-chloro-6-(4-(difluoromethyl)-2-methoxyphenyl)-5-fluoropicolinate] | – | – | – | – | – | 0 to 29 | 95 to 100 | 85 to 94 | 0 to 29 | 45 to 59 | 45 to 59 | 0 to 29 | 0 to 29 | 0 to 29 | 95 to 100 | 0 to 29 | 85 to 94 | 60 to 74 | 0 to 29 | 0 to 29 | – |
| COC(=O)c1nc(-c2ccc(C3CC3(F)F)cc2Cl)ccc1Cl (centres unmarked) [F13, methyl 3-chloro-6-(2-chloro-4-(2,2 difluorocyclopropyl)phenyl) picolinate] | 0 to 29 | 75 to 84 | 0 to 29 | 85 to 94 | 85 to 94 | – | – | – | – | – | – | – | – | – | – | – | – | – | – | – | pest or weed control at 140 g/ha [6]: 0 to 29%; pest or weed control at 140 g/ha [7]: 0 to 29%; pest or weed control at 140 g/ha [23]: 0 to 29%; pest or weed control at 140 g/ha [24]: 0 to 29%; pest or weed control at 140 g/ha [25]: 0 to 29%; pest or weed control at 140 g/ha [26]: 95 to 100%; pest or weed control at 140 g/ha [27]: 60 to 74%; pest or weed control at 140 g/ha [28]: 60 to 74%; pest or weed control at 140 g/ha [29]: 0 to 29%; pest or weed control at 140 g/ha [30]: 0 to 29% |
| COC(=O)c1nc(-c2cc(F)c(C)cc2Cl)ccc1Cl [F46, Methyl 3-chloro-6-(2-chloro-5-fluoro-4-methylphenyl) picolinate] | 0 to 29 | 0 to 29 | 0 to 29 | 60 to 74 | 0 to 29 | 0 to 29 | – | 0 to 29 | 0 to 29 | 0 to 29 | 0 to 29 | 0 to 29 | 0 to 29 | – | – | – | – | – | – | – | pest or weed control at 140 g/ha [6]: 0 to 29%; pest or weed control at 140 g/ha [7]: 0 to 29% |
| COC(=O)c1nc(-c2ccc(C(F)(F)F)c(Cl)c2)ccc1Cl [F304, Methyl 3-chloro-6-(3-chloro-4-(trifluoromethyl)phenyl)picolinate] | – | – | – | – | – | 0 to 29 | 95 to 100 | 0 to 29 | 0 to 29 | 0 to 29 | 0 to 29 | 0 to 29 | 0 to 29 | 0 to 29 | 0 to 29 | 30 to 44 | 0 to 29 | 0 to 29 | 0 to 29 | 0 to 29 | – |
| COC(=O)c1nc(-c2ccc(C(F)(F)F)c(C)c2)c(F)cc1Cl [F309, Methyl 3-chloro-5-fluoro-6-(3-methyl-4-(trifluoromethyl)phenyl)picolinate] | – | – | – | – | – | 0 to 29 | 0 to 29 | 0 to 29 | 0 to 29 | 0 to 29 | 0 to 29 | 0 to 29 | 0 to 29 | 0 to 29 | 0 to 29 | 0 to 29 | 45 to 59 | 45 to 59 | 0 to 29 | 0 to 29 | – |
| COC(=O)c1nc(-c2cccc3c2OC(F)(F)O3)ccc1Cl [F242, Methyl 3-chloro-6-(2,2-difluorobenzo[d][1,3]dioxol-4-yl)picolinate] | – | – | – | – | – | 0 to 29 | 0 to 29 | 0 to 29 | 0 to 29 | 0 to 29 | 75 to 84 | 0 to 29 | 0 to 29 | 0 to 29 | 0 to 29 | 0 to 29 | 60 to 74 | 0 to 29 | 0 to 29 | 0 to 29 | – |
| O=C(O)c1nc(-c2ccc(C(F)(F)F)cc2Cl)ccc1[N+](=O)[O-] [F252, 6-(2-Chloro-4-(trifluoromethyl)phenyl)-3-nitropicolinic acid] | – | – | – | – | – | 0 to 29 | 30 to 44 | 0 to 29 | 0 to 29 | 0 to 29 | 45 to 59 | 0 to 29 | 0 to 29 | 0 to 29 | 0 to 29 | 30 to 44 | 60 to 74 | 0 to 29 | 0 to 29 | 0 to 29 | – |
| COC(=O)c1nc(-c2ccc(C(F)F)cc2Cl)ccc1Cl [F19, methyl 3-chloro-6-(2-chloro-4-(difluoromethyl)phenyl)picolinate] | 0 to 29 | 95 to 100 | 0 to 29 | 95 to 100 | 95 to 100 | – | – | – | – | – | – | – | – | – | – | – | – | – | – | – | pest or weed control at 140 g/ha [6]: 30 to 44%; pest or weed control at 140 g/ha [7]: 0 to 29%; pest or weed control at 140 g/ha [23]: 0 to 29%; pest or weed control at 140 g/ha [24]: 0 to 29%; pest or weed control at 140 g/ha [25]: 0 to 29%; pest or weed control at 140 g/ha [26]: 95 to 100%; pest or weed control at 140 g/ha [27]: 30 to 44%; pest or weed control at 140 g/ha [28]: 85 to 94%; pest or weed control at 140 g/ha [29]: 0 to 29%; pest or weed control at 140 g/ha [30]: 0 to 29% |

Source: patent US20230017045A1, “PYRIDINE AND PYRIMIDINE CARBOXYLATE HERBICIDES AND METHODS OF USE THEREOF” (Dow AgroSciences LLC, priority 2017, published 2023)
